Data taken from patent US7622494B2, “Chemical compounds” (SmithKline Beecham Corporation, priority 2003, dated 2009).
Where a name gives a salt, the structure may show the parent alone. Read-outs that look alike come from different tables or passages of the source.

Test system: episomal HPV-16 DNA in W12-20850 cells
Test: W-12 cellular assay (hybrid capture quantification of episomal HPV-16 DNA)
Type: cell-based, HPV16
Settings: read-out: W-12
Description: Compounds of the current invention are believed useful in the treatment and/or prophylaxis of conditions and diseases associated with HPV infection. Activity mediated through HPV was determined using the following W-12 cellular assay.
The W12 cell line used contains HPV16 DNA and was derived from a low-grade cervical dysplasia tissue by Margaret Stanley and subsequently clonally selected by Paul Lambert (University of Wisconsin). One of these clones, W12-20850, contains 1000 copies of episomal HPV16 DNA and was used in the cell-based assay. W12-20850 cells were routinely cultured with a gamma-irradiated (6000 rads) feeder layer of 3T3 cells. Assays, however, were run in the absence of a 3T3 feeder layer. W12-20850 and 3T3 cells were routinely split when they were sub-confluent. W12-20850 were grown in W12 Medium which is constituted of 25% DMEM (Gibco BRL, Cat # 12430-047), 75% F12 Media (Gibco BRL, Cat # 11765-021) and 2.5% FBS. The additives include […] Adenine (Sigma, Cat # A-9795), […] Hydrocortisone (Calbiochem, Cat # 386698); 5.0 mg/ml Bovine Insulin (Sigma, Cat # I-1882), 8.4 ng/ml cholera toxin (Fluka, Cat # 26694) and 10 ng/ml EGF (Invitrogen, Cat # 13247-051). 3T3 cells were grown in DMEM containing 10% FBS. Cell lines were incubated at 37° C., in the presence of 5% CO2.
For the assay, W12-20850 cells were seeded into a 96 well plate-containing compound. Plates were incubated at 37° C. in the presence of 5% CO2, for four days. On the fourth day, cells were lysed and the amount of episomal. HPV-16 DNA was quantified using a non-radioactive hybrid capture technique with HPV-16 specific capture and detection probes. The percent inhibition relative to untreated control cells' was then determined.
The hybrid capture assay is run in a 96 well plate format. Hybridization plates (Nunc Maxisorb Cat # 450320) were coated with a mixture of capture probe and ReactiBind solution for at least 4 hours and then washed with 0.2×SSC, 0.05% Tween20 (SSCT) prior to blocking with […] of 0.2 N NaOH, 1% Igepal, 10 mg/ml hsDNA for 6-8 hours. The hybridization was carried out by mixing 27 μl of lysed cells with 45 μl of denatured detection probe in 6M guanidine isothiocyanate. To prevent evaporation, 50 μl of mineral oil was added to each well. The plate was then heated to 90° C. for 6.5 minutes and the hybridization continued at 42° C. overnight. Assay plates were washed 6 times with SSC/T. Anti-digoxigenin HRP-conjugated Ab (Boehringer Mannheim 1207733, 1:5000) was incubated in the wells for 30 min at room temperature and washed with PBS/0.05% Tween-20. SuperSignal LBA substrate (Pierce Cat # 37070) was added, and chemiluminescence was measured using Wallac 1420 Victor plate reader.

[1] = Human papillomavirus 16, W12-20850, 96 h
[2] = Human papillomavirus 16, 96 h, W12-20850 cells, four days incubation, episomal HPV-16 DNA by hybrid capture, inhibition relative to untreated control cells

Row | IC50 [2] [nM] | SMILES | IC50 [1] [nM]
1 |  | c1ccc(CNC2CCCc3c2[nH]c2ccccc32)cc1 (stereo not shown) [Example 15, N-Benzyl-2,3,4,9-tetrahydrocarbazole-1-amine hydrochloride salt] | 6600
2 |  | COc1ccc(CNC2CCCc3c2[nH]c2ccccc32)cc1 (stereo not shown) [Example 16, N-(4-Methoxybenzyl)-2,3,4,9-tetrahydro-1H-carbazol-1-amine hydrochloride salt] | 1500
3 |  | c1ccc(CCNC2CCCc3c2[nH]c2ccccc32)cc1 (stereo not shown) [Example 17, N-(2-Phenylethyl)-2,3,4,9-tetrahydro-1H-carbazol-1-amine hydrochloride salt] | 7400
4 |  | C[C@@H](NC1CCCc2c1[nH]c1ccccc21)c1ccccc1 (stereo partly drawn) [Example 18, N-[(1R)-1-Phenylethyl]-2,3,4,9-tetrahydro-1H-carbazol-1-amine hydrochloride salt] | 12300
5 |  | c1ccc2c3c([nH]c2c1)C(NC1CCCCC1)CCC3 (stereo not shown) [Example 19, N-Cyclohexyl-2,3,4,9-tetrahydro-1H-carbazol-1-amine hydrochloride salt] | 14500
6 | 3300 | c1ccc2c(c1)CC(NC1CCCc3c1[nH]c1ccccc31)C2 (stereo not shown) [Example 20, N-(2.3-Dihydro-1H-inden-2-yl)-2,3,4,9-tetrahydro-1H-carbazol-1-amine hydrochloride salt] | 
7 |  | CCCNC1CCCc2c1[nH]c1ccccc21 (stereo not shown) [Example 21, N-Propyl-2,3,4,9-tetrahydro-1H-carbazol-1-amine hydrochloride salt] | 40000
8 |  | COCCNC1CCCc2c1[nH]c1ccccc21 (stereo not shown) [Example 22, N-(2-Methoxyethyl)-2,3,4,9-tetrahydro-1H-carbazol-1-amine hydrochloride salt] | 47000
9 |  | OC[C@H](NC1CCCc2c1[nH]c1ccccc21)c1ccccc1 (stereo partly drawn) [Example 23, (2R)-2-Phenyl-2-(2,3,4,9-tetrahydro-1H-carbazol-1-ylamino)ethanol hydrochloride salt] | 30000
10 | 5300 | C[C@@H](CCc1ccccc1)NC1CCCc2c1[nH]c1ccccc21 (stereo partly drawn) [Example 24, N-[(1S)-1-Methyl-3-Phenylpropyl]-2,3,4,9-tetrahydro-1H-carbazol-1-aminehydrochloride salt] | 
11 | 1500 | c1ccc2c3c([nH]c2c1)C(NCc1ccc2c(c1)OCO2)CCC3 (stereo not shown) [Example 25, N-(1.3-Benzodioxol-5-ylmethyl)-2,3,4,9-tetrahydro-1H-carbazol-1-amine hydrochloride salt] | 
12 |  | Brc1ccc2[nH]c3c(c2c1)CCCC3NCCc1ccccc1 (stereo not shown) [Example 26, 6-Bromo-N-(2-phenylethyl)-2,3,4,9-tetrahydro-1H-carbazol-1-amine hydrochloride salt] | 410
13 |  | Brc1ccc2[nH]c3c(c2c1)CCC[C@H]3NC1Cc2ccccc2C1 [Example 27, (1R)-6-Bromo-N-(2,3-dihydro-1H-inden-2-yl)-2,3,4,9-tetrahydro-1H-carbazol-1-amine hydrochloride salt] | 57
14 | 3700 | Brc1ccc2[nH]c3c(c2c1)CCC[C@@H]3NC1Cc2ccccc2C1 [Example 28, (1S)-6-Bromo-N-(2.3-dihydro-1H-inden-2-yl)-2,3,4,9-tetrahydro-1H-carbazol-1-amine hydrochloride salt] | 
15 |  | Brc1ccc2[nH]c3c(c2c1)CCCC3NCc1ccccc1 (stereo not shown) [Example 29, N-Benzyl-6-bromo-2,3,4,9-tetrahydro-1H-carbazol-1-amine hydrochloride salt] | 115
16 |  | C[C@@H](NC1CCCc2c1[nH]c1ccc(Br)cc21)c1ccccc1 (stereo partly drawn) [Example 30, 6-Bromo-N-[(1R)-1-phenylethyl]-2,3,4,9-tetrahydro-1H-carbazol-1-amine hydrochloride salt] | < 200

Row | IC50 [2] [nM] | SMILES | IC50 [1] [nM]
17 |  | C[C@@H](N[C@@H]1CCCc2c1[nH]c1ccc(Br)cc21)c1ccccc1 [Example 31, (1R)-6-bromo-N-[(1R)-1-phenylethyl]-2,3,4,9-tetrahydro-1 H-carbazol-1-amine hydrochloride salt] | 30
18 |  | C[C@@H](N[C@H]1CCCc2c1[nH]c1ccc(Br)cc21)c1ccccc1 [Example 32, (1S)-6-Bromo-N-[(1R)-1-Phenylethyl]-2,3,4,9-tetrahydro-1H-carbazol-1-amine hydrochloride salt] | 525
19 |  | CC(C)(NC1CCCc2c1[nH]c1ccc(Br)cc21)c1ccccc1 (stereo not shown) [Example 33, 6-Bromo-N-(1-methyl-1-phenylethyl)-2,3,4,9-tetrahydro-1H-carbazol-1-amine hydrochloride salt] | 750
20 |  | C[C@H](NC1CCCc2c1[nH]c1ccc(Br)cc21)c1ccccc1 (stereo partly drawn) [Example 34, 6-Bromo-N-[(1S)-1-phenylethyl]-2,3,4,9-tetrahydro-1H-carbazol-1-amine hydrochloride salt] | 290
21 |  | C[C@H](N[C@H]1CCCc2c1[nH]c1ccc(Br)cc21)c1ccccc1 [Example 35, (1S)-6-Bromo-N-[(1S)-1-phenylethyl]-2,3,4,9-tetrahydro-1H-carbazol-1-amine hydrochloride salt] | 3000
22 |  | C[C@H](N[C@@H]1CCCc2c1[nH]c1ccc(Br)cc21)c1ccccc1 [Example 36, (1R)-6-Bromo-N-[(1S)-1-phenylethyl]-2,3,4,9-tetrahydro-1H-carbazol-1-amine hydrochloride salt] | 20
23 |  | CN(CCc1ccccc1)C1CCCc2c1[nH]c1ccc(Br)cc21 (stereo not shown) [Example 37, 6-Bromo-N-methyl-N-(2-phenylethyl)-2,3,4,9-tetrahydro-1H-carbazol-1-amine hydrochloride salt] | 3000
24 |  | Cn1c2c(c3cc(Br)ccc31)CCCC2NCCc1ccccc1 (stereo not shown) [Example 38, 6-Bromo-9-methyl-N-(2-phenylethyl)-2,3,4,9-tetrahydro-1H-carbazol-1-amine hydrochloride salt] | 27000
25 |  | C[C@@H](CNC1CCCc2c1[nH]c1ccc(Br)cc21)c1ccccc1 (stereo partly drawn) [Example 39, 6-Bromo-N-[(2R)-2-phenylpropyl]-2,3,4,9-tetrahydro-1H-carbazol-1-amine hydrochloride salt] | 160
26 |  | Cc1ccc2[nH]c3c(c2c1)CCCC3NCCc1ccccc1 (stereo not shown) [Example 40, 6-Methyl-N-(2-phenylethyl)-2,3,4,9-tetrahydro-1H-carbazol-1-amine hydrochloride salt] | 2700
27 | 400 | Cc1ccc2[nH]c3c(c2c1)CCCC3NC1Cc2ccccc2C1 (stereo not shown) [Example 41, N-(2.3-Dihydro-1H-inden-2-yl)-6-methyl-2,3,4,9-tetrahydro-1H-carbazol-1-amine hydrochloride-salt] | 
28 |  | Cc1ccc2[nH]c3c(c2c1)CCCC3N[C@H](C)c1ccccc1 (stereo partly drawn) [Example 42, 6-Methyl-N-[(1R)-1-phenylethyl]-2,3,4,9-tetrahydro-1H-carbazol-1-amine hydrochloride salt] | 540
29 |  | Cc1ccc2[nH]c3c(c2c1)CCC[C@H]3N[C@H](C)c1ccccc1 [Example 43, hydrochloride salt] | 240
30 |  | Cc1ccc2[nH]c3c(c2c1)CCC[C@@H]3N[C@H](C)c1ccccc1 [Example 44, (1S)-6-Methyl-N-[(1R)-1-phenylethyl]-2,3,4,9-tetrahydro-1H-carbazol-1-amine hydrochloride salt] | 8400
31 |  | Cc1ccc2[nH]c3c(c2c1)CCCC3N[C@@H](C)c1ccccc1 (stereo partly drawn) [Example 45, 6-Methyl-N-[(1S)-1-phenylethyl]-2,3,4,9-tetrahydro-1H-carbazol-1-amine hydrochloride salt] | 7000
